Test results taken from paper PMC5218480 (PLoS ONE, 2017).

Test system: MV-4-11 cells
Test: Gene expression microarray analysis (Affymetrix PrimeView) and GSEA
Format: cell-based, human
Design: RFU PODN (11730768_x_at) / Fold change /veh PODN (11730768_x_at) / RFU LINC00158 (11744669_a_at) / Fold change /veh LINC00158 (11744669_a_at) / RFU DUSP10 (11751237_a_at) / Fold change /veh DUSP10 (11751237_a_at) / RFU ID3 (11757404_x_at) / Fold change /veh ID3 (11757404_x_at) / RFU PLEKHG5 (11737974_s_at) / Fold change /veh PLEKHG5 (11737974_s_at) / RFU LRRC4B (11730491_at) / Fold change /veh LRRC4B (11730491_at) / RFU GIMAP4 (11747438_a_at) / Fold change /veh GIMAP4 (11747438_a_at) / RFU KRT8 (11758183_x_at) / Fold change /veh KRT8 (11758183_x_at) / RFU CNN1 (11734310_a_at) / Fold change /veh CNN1 (11734310_a_at) / RFU VPS37D (11726825_at) / Fold change /veh VPS37D (11726825_at) / RFU C10orf10 (11716522_x_at) / Fold change /veh C10orf10 (11716522_x_at) / RFU KIR2DL2 /// KIR2DL4 /// KIR2DL5A /// KIR2DL5B /// KIR2DS1 /// KIR2DS2 /// KIR2DS3 /// KIR2DS4 /// KIR3DL3 /// KIR3DL3 /// KIR3DS1 (11738374_at) / Fold change /veh KIR2DL2 /// KIR2DL4 /// KIR2DL5A /// KIR2DL5B /// KIR2DS1 /// KIR2DS2 /// KIR2DS3 /// KIR2DS4 /// KIR3DL3 /// KIR3DL3 /// KIR3DS1 (11738374_at) / RFU C1QL1 (11718748_at) / Fold change /veh C1QL1 (11718748_at) / RFU TMPRSS4 (11747572_a_at) / Fold change /veh TMPRSS4 (11747572_a_at) / RFU HAMP (11756126_x_at) / Fold change /veh HAMP (11756126_x_at) / RFU RNFT2 (11725882_a_at) / Fold change /veh RNFT2 (11725882_a_at) / RFU NR4A2 (11747474_a_at) / Fold change /veh NR4A2 (11747474_a_at) / RFU ABCC12 (11746883_a_at) / Fold change /veh ABCC12 (11746883_a_at) / RFU TMEM136 (11760407_x_at) / Fold change /veh TMEM136 (11760407_x_at) / RFU CLDN22 /// WWC2 (11732394_at) / Fold change /veh CLDN22 /// WWC2 (11732394_at) / RFU HLA-DPB1 (11760878_x_at) / Fold change /veh HLA-DPB1 (11760878_x_at) / RFU SPINT1 (11716480_a_at) / Fold change /veh SPINT1 (11716480_a_at) / RFU GAP43 (11754022_s_at) / Fold change /veh GAP43 (11754022_s_at) / RFU A4GNT (11735810_at) / Fold change /veh A4GNT (11735810_at) / RFU PRB3 (11715151_x_at) / Fold change /veh PRB3 (11715151_x_at) / RFU TUBB4B (11761932_at) / Fold change /veh TUBB4B (11761932_at) / RFU CAPN14 (11732068_a_at) / Fold change /veh CAPN14 (11732068_a_at) / RFU TMCC2 (11721928_a_at) / Fold change /veh TMCC2 (11721928_a_at) / RFU IRGQ (11745062_a_at) / Fold change /veh IRGQ (11745062_a_at) / RFU FAM174B (11720279_a_at) / Fold change /veh FAM174B (11720279_a_at) / RFU TMPRSS4 (11748680_a_at) / Fold change /veh TMPRSS4 (11748680_a_at) / RFU FAM212B (11763350_a_at) / Fold change /veh FAM212B (11763350_a_at) / RFU PLEKHG5 (11743358_a_at) / Fold change /veh PLEKHG5 (11743358_a_at) / RFU ZSCAN30 (11745921_a_at) / Fold change /veh ZSCAN30 (11745921_a_at) / RFU CMKLR1 (11741424_a_at) / Fold change /veh CMKLR1 (11741424_a_at) / RFU LOC101060620 /// MAPK8IP1 (11723275_at) / Fold change /veh LOC101060620 /// MAPK8IP1 (11723275_at) / RFU SPTSSB (11747773_x_at) / Fold change /veh SPTSSB (11747773_x_at) / RFU PRSS12 (11739890_at) / Fold change /veh PRSS12 (11739890_at) / RFU BIN1 (11741810_x_at) / Fold change /veh BIN1 (11741810_x_at) / RFU WNT11 (11732464_a_at) / Fold change /veh WNT11 (11732464_a_at) / RFU C10orf10 (11716521_a_at) / Fold change /veh C10orf10 (11716521_a_at) / RFU C5orf56 (11738089_at) / Fold change /veh C5orf56 (11738089_at) / RFU CYB561 (11721691_x_at) / Fold change /veh CYB561 (11721691_x_at) / RFU ANKRD19P (11752326_a_at) / Fold change /veh ANKRD19P (11752326_a_at) / RFU OR2T12 /// OR2T33 /// OR2T8 (11738714_s_at) / Fold change /veh OR2T12 /// OR2T33 /// OR2T8 (11738714_s_at) / RFU VCAN (11748164_a_at) / Fold change /veh VCAN (11748164_a_at) / RFU JSRP1 (11732532_at) / Fold change /veh JSRP1 (11732532_at) / RFU KRTAP10-11 (11738290_x_at) / Fold change /veh KRTAP10-11 (11738290_x_at) / RFU MYO3A (11730013_a_at) / Fold change /veh MYO3A (11730013_a_at) / RFU EBF3 (11725865_a_at) / Fold change /veh EBF3 (11725865_a_at) / RFU CAMK2N1 (11719241_x_at) / Fold change /veh CAMK2N1 (11719241_x_at) / RFU C5orf56 (11738088_a_at) / Fold change /veh C5orf56 (11738088_a_at) / RFU OLFML3 (11715873_a_at) / Fold change /veh OLFML3 (11715873_a_at) / RFU LOC100653217 /// NTM (11731650_a_at) / Fold change /veh LOC100653217 /// NTM (11731650_a_at) / RFU MAPK11 (11762145_a_at) / Fold change /veh MAPK11 (11762145_a_at) / RFU FIZ1 (11724087_x_at) / Fold change /veh FIZ1 (11724087_x_at) / RFU OASL (11726364_x_at) / Fold change /veh OASL (11726364_x_at) / RFU SOX15 (11748057_x_at) / Fold change /veh SOX15 (11748057_x_at) / RFU CD79A (11719716_a_at) / Fold change /veh CD79A (11719716_a_at) / RFU HIST1H1D (11736915_at) / Fold change /veh HIST1H1D (11736915_at) / RFU CASKIN2 (11723855_a_at) / Fold change /veh CASKIN2 (11723855_a_at) / RFU LOC730098 (11760151_x_at) / Fold change /veh LOC730098 (11760151_x_at) / RFU OR4N2 (11742367_at) / Fold change /veh OR4N2 (11742367_at) / RFU PRRT2 (11749266_a_at) / Fold change /veh PRRT2 (11749266_a_at) / RFU SNX32 (11753110_a_at) / Fold change /veh SNX32 (11753110_a_at) / RFU CDHR5 (11726645_a_at) / Fold change /veh CDHR5 (11726645_a_at) / RFU RCAN1 (11760418_a_at) / Fold change /veh RCAN1 (11760418_a_at) / RFU FAM167A (11723789_a_at) / Fold change /veh FAM167A (11723789_a_at) / RFU FAM26E (11764081_at) / Fold change /veh FAM26E (11764081_at) / RFU ISYNA1 (11749810_s_at) / Fold change /veh ISYNA1 (11749810_s_at) / RFU ACY1 (11761880_at) / Fold change /veh ACY1 (11761880_at) / RFU 11764098_at / Fold change /veh 11764098_at / RFU SAMD14 (11745864_x_at) / Fold change /veh SAMD14 (11745864_x_at) / RFU NPB (11741838_a_at) / Fold change /veh NPB (11741838_a_at) / RFU TMPRSS6 (11731388_a_at) / Fold change /veh TMPRSS6 (11731388_a_at) / RFU KRTAP10-2 (11738614_at) / Fold change /veh KRTAP10-2 (11738614_at) / RFU ARHGAP8 /// PRR5-ARHGAP8 (11727945_x_at) / Fold change /veh ARHGAP8 /// PRR5-ARHGAP8 (11727945_x_at) / RFU KRTAP5-7 /// NADSYN1 (11734609_at) / Fold change /veh KRTAP5-7 /// NADSYN1 (11734609_at) / RFU RASL12 (11751679_a_at) / Fold change /veh RASL12 (11751679_a_at) / RFU CDKN2B (11736163_a_at) / Fold change /veh CDKN2B (11736163_a_at) / RFU PRF1 (11729649_at) / Fold change /veh PRF1 (11729649_at) / RFU, ZNF638 /// ZNF638-IT1 / Fold change vs veh, ZNF638 /// ZNF638-IT1 / RFU, PANK3 / Fold change vs veh, PANK3 / RFU, SH3YL1 / Fold change vs veh, SH3YL1 / RFU, ZEB2 / Fold change vs veh, ZEB2 / RFU, NRIP1 / Fold change vs veh, NRIP1 / RFU, PTTG1IP / Fold change vs veh, PTTG1IP / RFU, CAPN2 / Fold change vs veh, CAPN2 / RFU, MED14 / Fold change vs veh, MED14 / RFU, SNORA58 / Fold change vs veh, SNORA58 / RFU, C1orf63 / Fold change vs veh, C1orf63 / RFU, LRRFIP1 / Fold change vs veh, LRRFIP1 / RFU, NDUFAF7 / Fold change vs veh, NDUFAF7 / RFU, SLC12A2 / Fold change vs veh, SLC12A2 / RFU, IBTK / Fold change vs veh, IBTK / RFU, ESF1 / Fold change vs veh, ESF1 / Fold change vs veh, TMEM50B / RFU, TAOK1 / Fold change vs veh, TAOK1 / RFU, ACBD3 / Fold change vs veh, ACBD3 / RFU, TMA16 / Fold change vs veh, TMA16 / RFU, RWDD3 / Fold change vs veh, RWDD3 / RFU, BCAT1 / Fold change vs veh, BCAT1 / RFU, EDEM3 / Fold change vs veh, EDEM3 / RFU, TMEM33 / Fold change vs veh, TMEM33 / RFU, WDR75 / Fold change vs veh, WDR75 / RFU, AHCTF1 / Fold change vs veh, AHCTF1 / RFU, TFRC / Fold change vs veh, TFRC / RFU, ZDHHC17 / Fold change vs veh, ZDHHC17 / RFU, NOM1 / Fold change vs veh, NOM1 / RFU, ARL8B / Fold change vs veh, ARL8B / RFU, ZBTB11 / Fold change vs veh, ZBTB11 / RFU, TAMM41 / Fold change vs veh, TAMM41 / RFU, KIAA1704 /// LOC100996395 / Fold change vs veh, KIAA1704 /// LOC100996395 / RFU, ING1 / Fold change vs veh, ING1 / RFU, TRMT61B / Fold change vs veh, TRMT61B / RFU, FUBP3 / Fold change vs veh, FUBP3 / RFU, TP53 / Fold change vs veh, TP53 / RFU, TNKS2 / Fold change vs veh, TNKS2 / RFU, ZFP14 / Fold change vs veh, ZFP14 / RFU, ACTR2 / Fold change vs veh, ACTR2 / RFU, PPP3R1 / Fold change vs veh, PPP3R1 / RFU, PIK3R1 / Fold change vs veh, PIK3R1 / RFU, HNRNPA1 / Fold change vs veh, HNRNPA1 / RFU, RNF170 / Fold change vs veh, RNF170 / RFU, ZNF28 / Fold change vs veh, ZNF28 / RFU, RNGTT / Fold change vs veh, RNGTT / RFU, OGT / Fold change vs veh, OGT / RFU, BRD1 / Fold change vs veh, BRD1 / RFU, MARS / Fold change vs veh, MARS / RFU, ZNF655 / Fold change vs veh, ZNF655 / RFU, FAHD1 / Fold change vs veh, FAHD1 / RFU, BDP1 / Fold change vs veh, BDP1 / RFU, LRRCC1 / Fold change vs veh, LRRCC1 / RFU, ARID1A / Fold change vs veh, ARID1A / RFU, ZNF146 / Fold change vs veh, ZNF146 / RFU, ZNF330 / Fold change vs veh, ZNF330 / RFU, GPN3 / Fold change vs veh, GPN3 / RFU, C9orf123 / Fold change vs veh, C9orf123 / RFU, N4BP2L2 / Fold change vs veh, N4BP2L2 / RFU, ARFIP1 / Fold change vs veh, ARFIP1 / RFU, FAM179B / Fold change vs veh, FAM179B / RFU, BCL10 / Fold change vs veh, BCL10 / RFU, UHRF1BP1L / Fold change vs veh, UHRF1BP1L / RFU, BET1 / Fold change vs veh, BET1 / RFU, CNOT2 / Fold change vs veh, CNOT2 / RFU, ZNF268 / Fold change vs veh, ZNF268 / Fold change vs veh, ZNF507 / RFU, DGCR2 / Fold change vs veh, DGCR2 / RFU, WDSUB1 / Fold change vs veh, WDSUB1 / Fold change vs veh, HSP90B1 /// MIR3652 / RFU, ADSS / Fold change vs veh, ADSS / RFU, GK / Fold change vs veh, GK / RFU, ZNF148 / Fold change vs veh, ZNF148 / RFU, TAF9 / Fold change vs veh, TAF9 / RFU, SLC1A5 / Fold change vs veh, SLC1A5 / RFU, SLMO2 / Fold change vs veh, SLMO2 / RFU, ABCC4 / Fold change vs veh, ABCC4 / RFU, LOC101060439 /// RAP1B / Fold change vs veh, LOC101060439 /// RAP1B / RFU, RFX7 / Fold change vs veh, RFX7 / RFU, GTPBP10 / Fold change vs veh, GTPBP10 / RFU, CNEP1R1 / Fold change vs veh, CNEP1R1 / RFU, BIVM-ERCC5 /// ERCC5 / Fold change vs veh, BIVM-ERCC5 /// ERCC5 / RFU, ILF3 / Fold change vs veh, ILF3 / RFU 11762660_at / Fold change /veh 11762660_at / RFU VCAN (11757783_s_at) / Fold change /veh VCAN (11757783_s_at) / RFU DDX43 (11728927_at) / Fold change /veh DDX43 (11728927_at) / RFU KRT8 (11758188_x_at) / Fold change /veh KRT8 (11758188_x_at) / RFU NKD1 (11759106_at) / Fold change /veh NKD1 (11759106_at) / RFU SRD5A1 (11742802_a_at) / Fold change /veh SRD5A1 (11742802_a_at) / RFU TPSAB1 /// TPSB2 (11721975_s_at) / Fold change /veh TPSAB1 /// TPSB2 (11721975_s_at) / RFU GSTM3 (11746129_a_at) / Fold change /veh GSTM3 (11746129_a_at) / RFU IL23R (11737362_x_at) / Fold change /veh IL23R (11737362_x_at) / RFU TMEM51 (11727254_a_at) / Fold change /veh TMEM51 (11727254_a_at) / RFU PIWIL2 (11732686_x_at) / Fold change /veh PIWIL2 (11732686_x_at) / RFU ORM1 (11744905_x_at) / Fold change /veh ORM1 (11744905_x_at) / RFU CCDC152 (11743942_at) / Fold change /veh CCDC152 (11743942_at) / RFU ECM1 (11717891_a_at) / Fold change /veh ECM1 (11717891_a_at) / RFU IL23R (11748794_a_at) / Fold change /veh IL23R (11748794_a_at) / RFU TNFAIP8L3 (11732012_x_at) / Fold change /veh TNFAIP8L3 (11732012_x_at) / RFU MBOAT4 (11741988_at) / Fold change /veh MBOAT4 (11741988_at) / RFU 11764193_at / Fold change /veh 11764193_at / RFU TMEM53 (11763286_at) / Fold change /veh TMEM53 (11763286_at) / RFU MAGEB2 (11727129_at) / Fold change /veh MAGEB2 (11727129_at) / RFU TMEM200A (11744735_a_at) / Fold change /veh TMEM200A (11744735_a_at) / RFU CCDC152 (11751479_a_at) / Fold change /veh CCDC152 (11751479_a_at) / RFU FAM211A (11726209_a_at) / Fold change /veh FAM211A (11726209_a_at) / RFU RGS16 (11746705_a_at) / Fold change /veh RGS16 (11746705_a_at) / RFU VCAN (11755009_s_at) / Fold change /veh VCAN (11755009_s_at) / RFU RHOB (11743442_s_at) / Fold change /veh RHOB (11743442_s_at) / RFU RGS16 (11720943_a_at) / Fold change /veh RGS16 (11720943_a_at) / RFU RGS16 (11720944_at) / Fold change /veh RGS16 (11720944_at) / RFU, VPS4B / Fold change vs veh, VPS4B / RFU, CREB1 / Fold change vs veh, CREB1 / RFU, DNAJC13 / Fold change vs veh, DNAJC13 / RFU, GNAQ / Fold change vs veh, GNAQ / RFU, CDK5R1 / Fold change vs veh, CDK5R1 / RFU, ZRANB3 / Fold change vs veh, ZRANB3 / RFU, CUL4A / Fold change vs veh, CUL4A / RFU, CCNY / Fold change vs veh, CCNY / RFU, UFL1 / Fold change vs veh, UFL1 / RFU, COG3 / Fold change vs veh, COG3 / RFU, DIAPH2 / Fold change vs veh, DIAPH2 / RFU, SKA2 / Fold change vs veh, SKA2 / RFU, AFF3 / Fold change vs veh, AFF3 / RFU, LMF1 / Fold change vs veh, LMF1 / RFU, IPO11 / Fold change vs veh, IPO11 / RFU, DFFB / Fold change vs veh, DFFB / RFU, FOXP1 / Fold change vs veh, FOXP1 / RFU, CARD8 / Fold change vs veh, CARD8 / RFU, STRN3 / Fold change vs veh, STRN3 / RFU, ADK / Fold change vs veh, ADK / RFU, RASSF2 / Fold change vs veh, RASSF2 / RFU, WIPF1 / Fold change vs veh, WIPF1 / RFU, LARP1B / Fold change vs veh, LARP1B / RFU, RASA1 / Fold change vs veh, RASA1 / RFU, RB1 / Fold change vs veh, RB1 / RFU, PPFIA1 / Fold change vs veh, PPFIA1 / RFU, MAT2A / Fold change vs veh, MAT2A / RFU, CCT5 / Fold change vs veh, CCT5 / RFU, WDR92 / Fold change vs veh, WDR92 / RFU, CUX1 / Fold change vs veh, CUX1 / RFU, TTC7A / Fold change vs veh, TTC7A / RFU, TMEM135 / Fold change vs veh, TMEM135 / RFU, DEPTOR / Fold change vs veh, DEPTOR / RFU, CPM / Fold change vs veh, CPM / RFU, DNAJB6 / Fold change vs veh, DNAJB6 / RFU, CACNA2D3 / Fold change vs veh, CACNA2D3 / RFU, DTX4 / Fold change vs veh, DTX4 / RFU, TFCP2 / Fold change vs veh, TFCP2 / RFU, GMCL1 /// GMCL1P1 / Fold change vs veh, GMCL1 /// GMCL1P1 / RFU, AEBP2 / Fold change vs veh, AEBP2 / RFU, SNHG1 /// SNORD22 /// SNORD25 /// SNORD26 /// SNORD27 /// SNORD28 /// SNORD29 /// SNORD31 / Fold change vs veh, SNHG1 /// SNORD22 /// SNORD25 /// SNORD26 /// SNORD27 /// SNORD28 /// SNORD29 /// SNORD31 / Fold change (Aza/veh), C12orf56 (ProbeSet 11735607_a_at) / Fold change (ACY-1035/veh), C12orf56 (ProbeSet 11735607_a_at) / Fold change (Aza/veh), FGFR1OP (ProbeSet 11751329_s_at) / Fold change (ACY-1035/veh), FGFR1OP (ProbeSet 11751329_s_at) / Fold change (Aza/veh), VPS36 (ProbeSet 11739960_a_at) / Fold change (ACY-1035/veh), VPS36 (ProbeSet 11739960_a_at) / RFU SYPL1 (11715823_x_at) / Fold change /veh SYPL1 (11715823_x_at) / RFU IGFBP7 (11715501_s_at) / Fold change /veh IGFBP7 (11715501_s_at) / RFU REEP3 (11722064_at) / Fold change /veh REEP3 (11722064_at) / RFU IGLL1 (11728026_x_at) / Fold change /veh IGLL1 (11728026_x_at): dose or concentration left out as unconfirmed
Settings: ProbeSet 11733831_s_at; LIST D

Nc1ccc(-c2cccs2)cc1NC(=O)c1ccc2c(c1)cc(C1CC1)n2CCN1CCOCC1 [ACY-1035]
Fold change vs veh, GMCL1 /// GMCL1P1: 0.86
